Assay: Chemical stability of ivermectin in the composition on storage
Type: physicochemical
Details: composition obtained according to the invention

## ivermectin
Stored for 6 months at 40° C.
  chemical stability of ivermectin: chemically stable
Stored for 12 months at room temperature
  chemical stability of ivermectin: chemically stable
